In test [1] the target is T1, CD73 on U138 neuroglioma cells (Homo sapiens, UniProt P21589).
T1 construct: U138 neuroglioma cells, which express CD73 on their surface; endogenous in cells; host or cells: U138 neuroglioma cells (ATCC)
T1 sequence (P21589 27-549): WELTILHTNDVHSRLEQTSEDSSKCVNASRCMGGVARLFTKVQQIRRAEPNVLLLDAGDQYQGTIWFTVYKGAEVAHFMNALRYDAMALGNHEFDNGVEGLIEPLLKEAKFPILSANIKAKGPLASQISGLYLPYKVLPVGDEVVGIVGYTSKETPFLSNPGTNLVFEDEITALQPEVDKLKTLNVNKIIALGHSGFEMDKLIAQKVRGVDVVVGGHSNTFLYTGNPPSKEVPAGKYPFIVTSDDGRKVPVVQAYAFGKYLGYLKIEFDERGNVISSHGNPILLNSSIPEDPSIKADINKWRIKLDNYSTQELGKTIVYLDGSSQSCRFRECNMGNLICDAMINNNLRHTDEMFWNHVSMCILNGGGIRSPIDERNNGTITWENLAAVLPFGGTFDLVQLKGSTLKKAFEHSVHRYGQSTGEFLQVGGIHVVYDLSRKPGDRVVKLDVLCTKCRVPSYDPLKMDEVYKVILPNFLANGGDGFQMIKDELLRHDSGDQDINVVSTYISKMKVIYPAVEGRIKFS
The experiment in a line: Inhibition of Ecto-5′-Nucleotidase Activity in U138 Neuroglioma Cells (Assay 2). It counts as cell-based. Particulars: 50 μM CMP, 2 hr at 37° C., malachite green readout, read-out: Assay 2: IC50, inhibition of ecto-5′-nucleotidase activity in U138 neuroglioma cells. The procedure, abridged: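 Whole-cell CD73 activity in U138 human neuroglioma cells seeded the day before, washed free of phosphate, then given test compound dilutions with 50 μM CMP in HEPES-buffered saline, pH 7.4, DMSO ≤0.1%. Incubated 2 hr at 37° C; released inorganic phosphate in supernatant measured by malachite green; IC50 by nonlinear regression.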

Another test has as its target T2, human CD73 (Homo sapiens, UniProt P21589).
T2 construct: purchased R&D Systems 5795-EN-010
T2 sequence (P21589 27-549): T1 sequence (P21589 27-549)
Nature of the test: Inhibition of 5′-Nucleotidase Activity of CD73 (Assay 1). Particulars: human CD73 4 ng/ml, 50 μM CMP, 20 min at RT, malachite green readout; read-out: Assay 1: IC50, inhibition of 5′-nucleotidase activity of CD73. Type of test: biochemical. The procedure, abridged: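 Human CD73 (4 ng/ml final) was incubated with 50 μM CMP in 25 mM Tris-HCl pH 7.4, 0.005% Brij-35 for 20 min at RT. Reactions were stopped with malachite green reagent and absorbance was read at 620 nm. IC50 came from a 4-parameter logistic fit.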

pIC50: −log10 of the molar value.

On to `CS(=O)(=O)c1ccccc1CC(OC[C@H]1O[C@@H](n2cnc3c(N)nc(Cl)nc32)[C@H](O)[C@@H]1O)(C(=O)O)C(=O)O` [Example 86, 2-(((2R,3S,4R,5R)-5-(6-amino-2-chloro-9H-purin-9-yl)-3,4-dihydroxytetrahydrofuran-2-yl)methoxy)-2-(2-(methylsulfonyl)benzyl)malonic acid], for which the pIC50 in test [1] was 6.00 to 7.00; on human CD73, more than 7.00.

Consider `CCOC(=O)C(OC[C@H]1C[C@@H](n2nnc3c(NC[C@@H]4CCOC4)nc(Cl)nc32)[C@H](O)[C@@H]1O)P(=O)(O)O` (stereo partly drawn) [Example 88, (1-(((1R,2R,3S,4R)-4-(5-chloro-7-((((S)-tetrahydrofuran-3-yl)methyl)amino)-3H-[1,2,3]triazolo[4,5-d]pyrimidin-3-yl)-2,3-dihydroxycyclopentyl)methoxy)-2-ethoxy-2-oxoethyl)phosphonic Acid], for which the pIC50 (in test [1]; at human CD73) was more than 7.00 in each case.

In the case of `CCOC(=O)C(OC[C@H]1C[C@@H](n2nnc3c(NC[C@H]4CCOC4)nc(Cl)nc32)[C@H](O)[C@@H]1O)P(=O)(O)O` (stereo partly drawn) [Example 89, (1-(((1R,2R,3S,4R)-4-(5-chloro-7-((((R)-tetrahydrofuran-3-yl)methyl)amino)-3H-[1,2,3]triazolo[4,5-d]pyrimidin-3-yl)-2,3-dihydroxycyclopentyl)methoxy)-2-ethoxy-2-oxoethyl)phosphonic Acid], the pIC50 (in test [1]; at human CD73) was more than 7.00 in each case.

As for `CCOC(=O)C(OC[C@H]1C[C@@H](n2nnc3c(N[C@@H]4CCOC4)nc(Cl)nc32)[C@H](O)[C@@H]1O)P(=O)(O)O` (stereo partly drawn) [Example 90, (1-(((1R,2R,3S,4R)-4-(5-chloro-7-(((R)-tetrahydrofuran-3-yl)amino)-3H-[1,2,3]triazolo[4,5-d]pyrimidin-3-yl)-2,3-dihydroxycyclopentyl)methoxy)-2-ethoxy-2-oxoethyl)phosphonic Acid], the pIC50 (in test [1]; at human CD73) was more than 7.00 each time.

As to `CCOC(=O)C(OC[C@H]1C[C@@H](n2nnc3c(N[C@H]4CCOC4)nc(Cl)nc32)[C@H](O)[C@@H]1O)P(=O)(O)O` (stereo partly drawn) [Example 91, (1-(((1R,2R,3S,4R)-4-(5-chloro-7-(((S)-tetrahydrofuran-3-yl)amino)-3H-[1,2,3]triazolo[4,5-d]pyrimidin-3-yl)-2,3-dihydroxycyclopentyl)methoxy)-2-ethoxy-2-oxoethyl)phosphonic Acid], the pIC50 (in test [1]; on human CD73) was more than 7.00 each time.

For the compound `CCOC(=O)C(OC[C@H]1C[C@@H](n2nnc3c(NC4CCCC4)nc(Cl)nc32)[C@H](O)[C@@H]1O)P(=O)(O)O` (stereo partly drawn) [Example 92, (1-(((1R,2R,3S,4R)-4-(5-chloro-7-(cyclopentylamino)-3H-[1,2,3]triazolo[4,5-d]pyrimidin-3-yl)-2,3-dihydroxycyclopentyl)methoxy)-2-ethoxy-2-oxoethyl)phosphonic Acid], the pIC50 (in test [1]; on human CD73) was more than 7.00 each time.

With `Nc1nc(Cl)nc2c1ncn2[C@@H]1O[C@H](COC(Cc2ccccn2)(C(=O)O)C(=O)O)[C@@H](O)[C@H]1O` [Example 93, 2-(((2R,3S,4R,5R)-5-(6-amino-2-chloro-9H-purin-9-yl)-3,4-dihydroxytetrahydrofuran-2-yl)methoxy)-2-(pyridin-2-ylmethyl)malonic acid], the pIC50 (in test [1]; on human CD73) was more than 7.00 throughout.

As for `Nc1nc(Cl)nc2c1ncn2[C@@H]1O[C@H](COC(Cc2nccs2)(C(=O)O)C(=O)O)[C@@H](O)[C@H]1O` [Example 94, 2-(((2R,3S,4R,5R)-5-(6-amino-2-chloro-9H-purin-9-yl)-3,4-dihydroxytetrahydrofuran-2-yl)methoxy)-2-(thiazol-2-ylmethyl)malonic acid], the pIC50 (in test [1]; on human CD73) was more than 7.00 in each case.

Take `Nc1nc(Cl)nc2c1ncn2[C@@H]1O[C@H](COC(Cc2cc(F)cc(F)c2)(C(=O)O)C(=O)O)[C@@H](O)[C@H]1O` [Example 96, 2-(((2R,3S,4R,5R)-5-(6-amino-2-chloro-9H-purin-9-yl)-3,4-dihydroxytetrahydrofuran-2-yl)methoxy)-2-(3,5-difluorobenzyl)malonic acid]: the pIC50 (in test [1]; on human CD73) was more than 7.00 throughout.

Turning to `O=C(O)C(Cc1ccc(F)cc1)(OC[C@H]1O[C@@H](n2cnc3c(NC4CCCC4)nc(Cl)nc32)[C@H](O)[C@@H]1O)C(=O)O` [Example 97, 2-(((2R,3S,4R,5R)-5-(2-chloro-6-(cyclopentylamino)-9H-purin-9-yl)-3,4-dihydroxytetrahydrofuran-2-yl)methoxy)-2-(4-fluorobenzyl)malonic acid], the pIC50 (in test [1]; at human CD73) was 6.00 to 7.00 throughout.

For `Nc1nc(Cl)nc2c1ncn2[C@@H]1O[C@H](COC(CC2CC2)(C(=O)O)C(=O)O)[C@@H](O)[C@H]1O` [Example 98, 2-(((2R,3S,4R,5R)-5-(6-amino-2-chloro-9H-purin-9-yl)-3,4-dihydroxytetrahydrofuran-2-yl)methoxy)-2-(cyclopropylmethyl)malonic acid], the pIC50 (in test [1]; on human CD73) was more than 7.00 throughout.

In the case of `CCOC(=O)C(SC[C@H]1O[C@@H](n2cnc3c(N)nc(Cl)nc32)[C@H](O)[C@@H]1O)P(=O)(O)O` (stereo partly drawn) [Example 99, (1-((((2S,3S,4R,5R)-5-(6-amino-2-chloro-9H-purin-9-yl)-3,4-dihydroxytetrahydrofuran-2-yl)methyl)thio)-2-ethoxy-2-oxoethyl)phosphonic Acid], the pIC50 (in test [1]; on human CD73) was 6.00 to 7.00 throughout.

As usually defined, the pIC50 is the negative decadic logarithm of the IC50, by convention in mol/L.

These data come from patent publication US10654884B2 (Vitae Pharmaceuticals, Inc., priority 2014, dated 2020).
